Test results from ChEMBL document CHEMBL1921782, “Crystal structure-based virtual screening for fragment-like ligands of the human histamine H(1) receptor” (J Med Chem, 2011).

How the values were obtained:
Histamine H1 receptor = Histamine H1 receptor (Homo sapiens, UniProt P35367); experiment: biochemical; format: cell-based, HEK293
Histamine H3 receptor = Histamine H3 receptor (Homo sapiens, UniProt Q9Y5N1); experiment: Displacement of [3H]N-alpha-methylhistamine from human histamine H3 receptor expressed in HEK293 cells after 1 to 1.5 hrs by scintillation counting; format: cell-based
Histamine H3 receptor, sequence (Q9Y5N1 whole entry): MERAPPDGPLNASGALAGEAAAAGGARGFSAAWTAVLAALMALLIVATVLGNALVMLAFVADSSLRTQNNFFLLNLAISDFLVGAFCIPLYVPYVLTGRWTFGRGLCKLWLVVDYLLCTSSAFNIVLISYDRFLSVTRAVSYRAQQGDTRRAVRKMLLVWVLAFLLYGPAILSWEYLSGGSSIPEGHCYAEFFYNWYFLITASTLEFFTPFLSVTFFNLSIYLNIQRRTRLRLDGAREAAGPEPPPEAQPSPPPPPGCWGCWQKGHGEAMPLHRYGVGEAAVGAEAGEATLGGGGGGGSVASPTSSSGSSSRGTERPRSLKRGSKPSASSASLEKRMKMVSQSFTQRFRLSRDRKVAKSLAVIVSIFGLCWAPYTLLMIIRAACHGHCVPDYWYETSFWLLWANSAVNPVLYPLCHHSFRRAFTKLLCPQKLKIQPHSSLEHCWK

Histamine H4 receptor = Histamine H4 receptor (Homo sapiens, UniProt Q9H3N8); experiment: Displacement of [3H]histamine from human histamine H4 receptor expressed in HEK293 cells after 1 to 1.5 hrs by scintillation counting; format: cell-based
Histamine H4 receptor, sequence (Q9H3N8 whole entry): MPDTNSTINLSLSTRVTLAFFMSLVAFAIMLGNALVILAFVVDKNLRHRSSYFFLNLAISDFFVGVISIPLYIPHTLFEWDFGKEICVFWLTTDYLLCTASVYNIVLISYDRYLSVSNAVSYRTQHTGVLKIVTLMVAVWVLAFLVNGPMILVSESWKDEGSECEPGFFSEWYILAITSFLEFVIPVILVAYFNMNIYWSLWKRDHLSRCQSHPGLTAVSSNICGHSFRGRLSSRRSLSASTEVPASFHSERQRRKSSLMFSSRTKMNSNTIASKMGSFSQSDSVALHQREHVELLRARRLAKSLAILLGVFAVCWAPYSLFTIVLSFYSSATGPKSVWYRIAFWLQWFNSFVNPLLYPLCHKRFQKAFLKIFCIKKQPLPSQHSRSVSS

Histamine H1 receptor, sequence (P35367 whole entry): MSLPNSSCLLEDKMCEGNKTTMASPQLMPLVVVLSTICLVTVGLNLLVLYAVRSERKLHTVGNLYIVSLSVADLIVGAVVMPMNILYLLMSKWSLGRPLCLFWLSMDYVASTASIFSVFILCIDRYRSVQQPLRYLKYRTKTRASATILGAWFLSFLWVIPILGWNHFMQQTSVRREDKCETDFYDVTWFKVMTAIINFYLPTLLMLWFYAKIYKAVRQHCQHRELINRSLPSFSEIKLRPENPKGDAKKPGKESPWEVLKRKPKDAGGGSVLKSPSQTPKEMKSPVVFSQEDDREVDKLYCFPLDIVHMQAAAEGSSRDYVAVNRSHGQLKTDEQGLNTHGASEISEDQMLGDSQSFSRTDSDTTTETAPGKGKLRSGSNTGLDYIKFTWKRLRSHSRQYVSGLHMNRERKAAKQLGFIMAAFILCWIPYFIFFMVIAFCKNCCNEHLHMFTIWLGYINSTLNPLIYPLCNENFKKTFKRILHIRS

NC1=NC(c2ccccc2)n2c(nc3ccccc32)N1 (stereo not given)
Ki (Histamine H1 receptor; read-out: pKi (converted)): 427 nM

C1CCN(c2nc(N3CCCC3)nc(N3CCNCC3)n2)C1
Ki (Histamine H1 receptor; read-out: pKi (converted)): 1910 nM

C=CCn1c(=N)n(CC(=O)c2ccccc2)c2ccccc21
Ki (Histamine H1 receptor; read-out: pKi (converted)): 10700 nM

NCCc1ccccc1Oc1ccccc1
Ki (Histamine H1 receptor; read-out: pKi (converted)): 11000 nM

c1ccc2c(N3CCN(C4CCCC4)CC3)ncnc2c1
Ki (Histamine H3 receptor): 100 nM | Ki (Histamine H1 receptor; read-out: pKi (converted)): 3240 nM

CN1CCN(c2nc(N3CCCC3)c3cnn(C)c3n2)CC1
Ki (Histamine H4 receptor): 2900 nM | Ki (Histamine H1 receptor; read-out: Ki): 62 nM

OCCN1CCN(c2ncnc3sccc23)CC1
Ki (Histamine H1 receptor; read-out: pKi (converted)): 708 nM

CNCC(O)CN1c2ccccc2C2CCCCC21 (stereo not given)
Ki (Histamine H1 receptor; read-out: pKi (converted)): 2290 nM

c1ccc2c(c1)nc1n(CCN3CCCCC3)cnn21
Ki (Histamine H3 receptor): 600 nM | Ki (Histamine H1 receptor; read-out: pKi (converted)): 2630 nM

CC(C)NCc1ccc(-c2ccccc2)o1
Ki (Histamine H1 receptor; read-out: pKi (converted)): 4570 nM

CN(C)CCSc1nc2ccccc2c2nnnn12
Ki (Histamine H1 receptor; read-out: pKi (converted)): 708 nM

OC(CNC1CC1)Cn1c2ccccc2c2ccccc21 (stereo not given)
Ki (Histamine H4 receptor): 2400 nM | Ki (Histamine H1 receptor; read-out: pKi (converted)): 6310 nM

c1cnc2c(c1)cc([C@@H]1CCCO1)n2CCN1CCCCC1
Ki (Histamine H1 receptor; read-out: pKi (converted)): 1780 nM

c1ccc(Cc2ccccc2OC2CCNCC2)cc1
Ki (Histamine H1 receptor; read-out: Ki): 6 nM

CNCCCOc1cccc2ccccc12
Ki (Histamine H1 receptor; read-out: pKi (converted)): 794 nM

c1ccc2c(c1)n(CCN1CCCCC1)c1ncnn21
Ki (Histamine H1 receptor; read-out: pKi (converted)): 4170 nM
